What was measured:
human RET = biological target: T1, human RET (Homo sapiens, UniProt P07949); assay: RET kinase inhibition, GST-wtRET or GST-RET-Men2B, 33P incorporation into poly(Glu,Tyr); format: biochemical; conditions: Table 4
T1 construct: fused on or other part: N-terminal GST tag (pFB-GSTX3 vector)
Procedure: The inhibition of RET is measured as follows: The baculovirus donor vector pFB-GSTX3 is used to generate a recombinant baculovirus that expresses the amino acid region 658-1072 (Swiss prot No. Q9BTB0) of the intra-cytoplasmic kinase domain of human RET-Men2A which corresponds to the wild-type kinase domain of RET (wtRET) and RET-Men2B, which differs from the wtRET by the activating mutation in the activation loop M918T. The coding sequences for the cytoplasmic domain of wtRET and RET-Men2B are amplified by PCR from the plasmids pBABEpuro RET-Men2A and pBABEpuro RET-Men2B. The amplified DNA fragments and the pFB-GSTX3 vector are made compatible for ligation by digestion with SalI and KpnI. Ligation of these DNA fragments results in the baculovirus donor plasmid pFB-GX3-RET-Men2A and pFB-GX3-RET-Men2B, respectively. Production of virus: Transfer vectors containing the kinase domains are transfected into the DH10Bac cell line (GIBCO) and plated on selective agar plates. Colonies without insertion of the fusion sequence into the viral genome (carried by the bacteria) are blue. Single, white colonies are picked and viral DNA (bacmid) are isolated from the bacteria by standard plasmid purification procedures. Sf9 cells or Sf21 (American Type Culture Collection) cells are then transfected in 25 cm^2 flasks with the viral DNA using Cellfectin reagent. Determination of small scale protein expression in Sf9 cells: Virus-containing media is collected from the transfected cell culture and used for infection to increase its titer. Virus-containing media obtained after two rounds of infection is used for large-scale protein expression. For large-scale protein expression 100 cm^2 round tissue culture plates are seeded with 5×10^7 cells/plate and infected with 1 mL of virus-containing media (approximately 5 MOIs). After 3 days, the cells are scraped off the plate and centrifuged at 500 rpm for 5 minutes. Cell pellets from 10-20, 100 cm^2 plates, are re-suspended in 50 mL of ice-cold lysis buffer (25 mM tris-HCl, pH 7.5, 2 mM EDTA, 1% NP-40, 1 mM DTT, 1 mM P MSF). The cells are stirred on ice for 15 minutes and then centrifuged at 5,000 rpms for 20 minutes. Purification of GST-tagged proteins: The centrifuged cell lysate is loaded onto a 2 mL glutathione-sepharose column (Pharmacia) and is washed 3× with 10 mL of 25 mM tris-HCl, pH 7.5, 2 mM EDTA, 1 mM DTT, 200 mM NaCl. The GST-tagged proteins are then eluted by 10 applications (1 mL each) of 25 mM tris-HCl, pH 7.5, 10 mM reduced-glutathione, 100 mM NaCl, 1 mM DTT, 10% glycerol and stored at −70° C. Measure of enzyme activity: Tyrosine protein kinase assays with either purified GST-wtRET or GST-RET-Men2B protein are carried out in a final volume of 30 μL containing 15 ng of either GST-wtRET or GST-RET-Men2B protein, 20 mM tris-HCl, pH 7.5, 1 mM MnCl2, 10 mM MgCl2, 1 mM DTT, 3 μg/mL poly(Glu,Tyr) 4:1, 1% DMSO, 2.0 μM ATP (γ-[^33P]-ATP 0.1 μCi). The activity is assayed in the presence or absence of inhibitors, by measuring the incorporation of ^33P from [γ^33P] ATP into poly(Glu,Tyr) 4:1. The assay is carried out in 96-well plates at ambient temperature for 15 minutes under conditions described below and terminated by the addition of 20 μL of 125 mM EDTA. Subsequently, 40 μL of the reaction mixture are transferred onto Immobilon-PVDF membrane (Millipore) previously soaked for 5 minutes with methanol, rinsed with water, then soaked for 5 minutes with 0.5% H3PO4 and mounted on vacuum manifold with disconnected vacuum source. After spotting all samples, vacuum is connected and each well-rinsed with 200 μL 0.5% H3PO4. Membranes are removed and washed 4× on a shaker with 1.0% H3PO4, once with ethanol. Membranes are counted after drying at ambient temperature, mounting in Packard TopCount 96-well frame, and addition of 10 μL/well of Microscint™ (Packard). IC50 values are calculated by linear regression analysis of the percentage inhibition of each compound in duplicate, at 4 concentrations (usually 0.01, 0.1, 1 and 10 μM). […]

[1] = biological target: T2, human insulin receptor (Ins-R) (Homo sapiens, UniProt P06213); assay: Ins-R tyrosine kinase assay, GST-Ins-R; format: biochemical; conditions: Table 4; read-out: Ins-R, activity (IC50 for kinase inhibition)
T2 construct: encoding the amino acid region 919-1343 of the intra-cytoplasmic kinase domain of the human insulin receptor; made in house; host or cells: baculovirus (Bac-to-Bac)
T2 sequence (P06213 958-1382 limits assumed): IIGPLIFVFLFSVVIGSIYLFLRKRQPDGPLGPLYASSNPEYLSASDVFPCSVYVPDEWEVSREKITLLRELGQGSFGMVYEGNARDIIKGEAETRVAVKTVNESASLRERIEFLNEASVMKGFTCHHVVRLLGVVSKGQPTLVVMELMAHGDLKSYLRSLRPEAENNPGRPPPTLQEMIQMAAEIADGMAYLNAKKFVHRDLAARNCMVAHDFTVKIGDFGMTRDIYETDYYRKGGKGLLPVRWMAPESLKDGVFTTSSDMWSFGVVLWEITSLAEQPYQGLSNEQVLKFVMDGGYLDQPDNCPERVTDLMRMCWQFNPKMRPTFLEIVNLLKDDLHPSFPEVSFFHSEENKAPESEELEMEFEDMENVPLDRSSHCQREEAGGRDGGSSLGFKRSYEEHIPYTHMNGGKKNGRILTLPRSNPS
Excerpt: The inhibition of IGF-1R and Ins-R can be determined as follows: The baculovirus donor vector pfbgx3IGFIRcd is used to generate a recombinant baculovirus that expresses the amino acid region 950-1337 of the mature peptide cytoplasmic domain of the human IGF-IR. To generate the cDNA fragment encoding the amino acid region 919-1343 of the intra-cytoplasmic kinase domain of the human insulin receptor, pC5hInsR is used. The fragments of the human IGF-IR and Ins-R are cloned, expressed and small-scale purified as a factor Xa-cleavable glutathione-S-transferase (GST)-fusion protein using the Bac-to-Bac™ system (GIBCO BRL) of recombinant baculovirus generation. Virus containing media is collected from the transfected cell culture and used for infection to increase its titer. Virus containing media obtained after two rounds of infection is used for large-scale protein expression. Cell extracts are prepared and loaded onto a glutathione-Sepharose (Pharmacia) column. After washing, the GST-tagged proteins are then eluted with a glutathione-containing buffer. Purified protein is stored at −70° C. in elution buffer. Tyrosine protein kinase assays with purified GST-IGF-1R and GST-ins-R are carried in a final volume of 30 μl containing 20 mM Tris-HCl, pH 7.6, 10 mM MgCl2, 0.01 mM Na3VO4, 1% DMSO, 1 mM DTT, 3 μg/ml poly(Glu,Tyr) 4:1 and 10 μM ATP (γ-[^33P]-ATP 0.1 μCi). The assay is performed in 96-well plates at ambient temperature for 20 min and terminated by addition of 25 μl 0.05 M EDTA pH 7.0. An aliquot of 40 μl is spotted with a multichannel dispenser on Whatman P81 membranes mounted in a Millipore Microtiter filter manifold connected to a low vacuum source. After elimination of liquid, the membrane is transferred to a sequence of 4 washing baths containing 0.5% H3PO4 and one with EtOH (shaking incubation for 10 min each), dried, mounted onto a Hewlett Packard TopCount manifold added 10 μl Microscint® and counted. Compounds of formula (I) show up to 90% inhibition of Ins-R at 10,000 nM, preferably between 60-90% inhibition. The inhibition of Tek can be determined as follows: The procedure of the expression, purification and assay these kinases has been described. Fabbro et al., Pharmacol. Ther. 82(2-3) 293-301 (1999). In brief, the glutathione S-transferase (GST) gene from the pAcG1 vector (Pharmingen) is excised with EcoRV and EcoRI and inserted into the cloning site of the Fast-Bac baculoviral vector (GIBCO) creating a 5530 bp vector with N-terminal cloning sites derived from the pAcG1 fusion vector (FBG0). The C-terminal cloning site may be any cloning site (from the Fast-Bac vector) downstream of the N-terminal cloning site used. N-terminally GST-fused (pAcG1, Pharmingen) KDR, Flt-1, Flk-1, Tek and PDGFR-β kinase domains are obtained from ProQinase, Freiburg, Germany. Tek is recloned into the FBG1 vector by EcoRI excision and ligation into EcoRI digested FBG1 (FBG1-Tek). The coding sequences for the whole cytoplasmic domain of c-Kit (aa 544-976) and c-Fms (aa 538-972) are amplified by PCR from human uterus and from human bone marrow cDNA libraries (Clontech), respectively. The amplified DNA fragments are fused to GST by cloning them into FBG1 as BamHI-EcoRI insertions, to yield FBG1-c-Kit and FBG1-c-Fms. Tek is recloned into the FBG0 transfer vector by EcoRI excision and ligation into EcoRI digested FBG0 (FBG-Tie2/Tek). FGFR-1 and c-met kinase domains are obtained by PCR from human A431 cells. N-terminal primers contain an overhanging EcoRI site, while C-terminal primers contain a XhoI site to aid cloning into the transfer vectors. After digestion of both the PCR fragments and FBG0 the cleavage products are gel-purified and ligated together to form the kinase constructs (FBG-Met, FBG-FGFR-1).

Cdk1/cycB = Cdk1/cycB (UniProt P06493); assay: Cdk1/cycB kinase assay, histone H1 substrate; format: biochemical, starfish; conditions: Table 4; read-out: Cdk1, activity (IC50 for kinase inhibition)
Procedure: The inhibition of Cdk1 can be determined as follows: Cdk1/cycB: Cdk1/cycB are obtained from ProQinase, Freiburg, Germany. Starfish oocytes are induced to enter M phase of the cell cycle with 10 μM 1-methyladenine and frozen in liquid nitrogen and stored at −80° C. […] Briefly, the supernatant from oocytes is equilibrated for 30 min at 4° C. under constant rotation with the p9^CKShs-sepharose beads. The beads are extensively washed and active cdk1/cycB kinase is eluted with purified p9^CKShs (3 mg/ml). […] The assay is carried with slight modifications in 96-well plates at ambient temperature for 20 min. […] The reaction is terminated by addition of 25 μl 0.05 M EDTA pH 7.0. An aliquot of 40 μl is spotted with a multichannel dispenser on Immobilon P membranes mounted in a Millipore Microtiter filter manifold connected to a low vacuum source. After elimination of liquid, the membrane is transferred to a sequence of 4 washing baths containing 0.5% H3PO4 and one with EtOH (shaking incubation for 10 min each), dried, mounted onto a Hewlett Packard TopCount manifold added 10 μl Microscint® and counted. […] Cells were seeded at 2.5×10^7 cells per 150 mm dish and allowed to attach to a 150 mm dish for 1 hr at RT. Media (SF900II containing 10% FBS) is aspirated and recombinant baculovirus; GST-C-Raf-1, v-Ras and v-Src are added at MOI of 3.0, 2.5 and 2.5 receptively in a total volume of 4-5 mL. Cells are incubated for 1 hr at RT and then 15 mL of medium is added. Infected cells are incubated for 48-72 hr at 27° C. Infected Sf21 cells are scraped and collected into a 50 mL tube and centrifuged for 10 min at 4° C. at 1100 g in a Sorvall centrifuge. The cell pellet is washed once with ice cold PBS and lysed with 0.6 mL lysis buffer per 2.5×10^7 cells. Complete lysis of cells is achieved after 10 min on ice with occasional pipetting. […] GST-c-Raf-1 was allowed to bind to the beads at 4° C. for 1 hr with rocking. Bound GST-c-Raf-1 with beads was transferred to a column. The column is washed once with lysis buffer and twice with ice cold Tris buffered saline. Ice cold elution buffer is added and column flow is stopped to allow the free glutathione to disrupt the interaction of GST-c-Raf-1 with glutathione sepharose beads. Fractions (1 mL) are collected into pre-chilled tubes. Each tube contains 10% glycerol (final concentration) to maintain kinase activity during freeze thaw cycles. Purified fractions of GST-c-Raf-1 kinase protein are stored at −80° C.

c-Abl kinase = biological target: T3, c-Abl kinase (Homo sapiens, UniProt P00519); assay: c-Abl protein-tyrosine kinase filter binding assay; format: biochemical
T3 construct: The His-tagged kinase domain of c-Abl is cloned and expressed in the baculovirus/Sf9 system; His; made in house; host or cells: Sf9 (baculovirus)
T3 sequence (P00519 242-493 limits assumed): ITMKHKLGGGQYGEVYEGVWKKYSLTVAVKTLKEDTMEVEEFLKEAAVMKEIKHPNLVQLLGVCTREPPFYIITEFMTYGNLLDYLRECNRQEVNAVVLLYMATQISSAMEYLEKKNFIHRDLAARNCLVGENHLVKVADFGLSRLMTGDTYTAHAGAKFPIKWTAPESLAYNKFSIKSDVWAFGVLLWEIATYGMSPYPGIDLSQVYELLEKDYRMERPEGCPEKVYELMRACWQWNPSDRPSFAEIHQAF
Procedure: The His-tagged kinase domain of c-Abl is cloned and expressed in the baculovirus/Sf9 system as described by Bhat et al. in J. Biol. Chem. 1997; 272:16170-16175. A protein of 37 kD (c-Abl kinase) is purified by a two-step procedure over a Cobalt metal chelate column followed by an anion exchange column with a yield of 1-2 mg/L of Sf9 cells (Bhat et al., reference cited). The purity of the c-Abl kinase is >90% as judged by SDS-PAGE after Coomassie blue staining. The assay contains (total volume of 30 μL): c-Abl kinase (50 ng), 20 mM Tris.HCl, pH 7.5, 10 mM MgCl2, 10 μM Na3VO4, 1 mM DTT and 0.06 μCi/assay [γ^33 P]-ATP (5 μM ATP) using 30 μg/mL poly-Ala,Glu,Lys,Tyr-6:2:5:1 (Poly-AEKY, Sigma P1152) in the presence of 1% DMSO. Reactions are terminated by adding 10 μL of 250 mM EDTA and 30 μL of the reaction mixture is transferred onto Immobilon-PVDF membrane (Millipore, Bedford, Mass., USA) previously soaked for 5 min with methanol, rinsed with water, then soaked for 5 min with 0.5% H3PO4 and mounted on vacuum manifold with disconnected vacuum source. After spotting all samples, vacuum is connected and each well rinsed with 200 μL 0.5% H3PO4. Membranes are removed and washed on a shaker with 0.5% H3PO4 (4 times) and once with ethanol. Membranes are counted after drying at ambient temperature, mounting in Packard TopCount 96-well frame, and addition of 10 μL/well of Microscint™ (Packard).

T1 sequence (P07949 1-1072 isoform P07949-2): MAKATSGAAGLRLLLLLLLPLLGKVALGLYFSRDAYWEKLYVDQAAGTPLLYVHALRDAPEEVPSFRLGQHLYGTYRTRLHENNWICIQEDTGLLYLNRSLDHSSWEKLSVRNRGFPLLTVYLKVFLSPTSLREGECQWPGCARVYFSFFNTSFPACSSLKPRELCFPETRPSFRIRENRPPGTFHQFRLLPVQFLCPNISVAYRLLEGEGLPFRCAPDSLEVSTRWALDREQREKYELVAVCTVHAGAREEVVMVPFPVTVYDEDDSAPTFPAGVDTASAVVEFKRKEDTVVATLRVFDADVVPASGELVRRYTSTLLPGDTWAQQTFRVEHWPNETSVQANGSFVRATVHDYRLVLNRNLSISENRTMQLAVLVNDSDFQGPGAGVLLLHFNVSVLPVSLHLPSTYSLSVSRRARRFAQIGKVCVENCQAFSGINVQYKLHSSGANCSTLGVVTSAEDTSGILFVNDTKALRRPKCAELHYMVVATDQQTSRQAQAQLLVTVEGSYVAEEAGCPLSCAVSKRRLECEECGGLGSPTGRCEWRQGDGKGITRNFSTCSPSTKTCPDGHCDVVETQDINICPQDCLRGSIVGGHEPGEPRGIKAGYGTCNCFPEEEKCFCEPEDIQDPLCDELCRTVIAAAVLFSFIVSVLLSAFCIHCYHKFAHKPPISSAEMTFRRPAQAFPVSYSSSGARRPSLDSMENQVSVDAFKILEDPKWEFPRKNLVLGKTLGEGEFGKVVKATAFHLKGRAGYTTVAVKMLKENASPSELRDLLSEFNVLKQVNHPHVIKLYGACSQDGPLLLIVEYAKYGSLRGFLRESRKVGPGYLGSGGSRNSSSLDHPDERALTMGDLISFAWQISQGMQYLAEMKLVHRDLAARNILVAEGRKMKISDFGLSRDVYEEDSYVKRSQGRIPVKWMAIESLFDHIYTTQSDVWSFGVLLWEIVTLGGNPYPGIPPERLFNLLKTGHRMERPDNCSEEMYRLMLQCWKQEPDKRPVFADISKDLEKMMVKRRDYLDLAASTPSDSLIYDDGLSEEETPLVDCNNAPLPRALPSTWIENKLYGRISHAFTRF

Row | SMILES | IC50 (human RET) [µM] | IC50 [1] [µM] | IC50 (Cdk1/cycB) [µM] | IC50 (c-Abl kinase) [µM]
1 | Cc1nn2c(N)c(-c3cccc(O)c3)cnc2c1-c1ccc(N2CCN(C)CC2)cc1 [Example 61a, 3-{7-Amino-2-methyl-3-[4-(4-methyl-piperazin-1-yl)phenyl]-pyrazolo[1,5-a]pyrimidin-6-yl}-phenol] | < 10 | – | – | –
2 | Nc1cc(-c2ccccc2)nc2c(Br)cnn12 [Example 18, 3-Bromo-5-phenyl-pyrazolo[1,5-a]pyrimidin-7-ylamine] | – | < 10 | < 10 | –
3 | CN1CCN(c2ccc(-c3cnn4c(N)c(-c5ccc(O)cc5)cnc34)cc2)CC1 [Example 35, 4-{7-Amino-3-[4-(4-methyl-piperazin-1-yl)-phenyl]-pyrazolo[1,5-a]pyrimidin-6-yl}-phenol] | < 10 | – | – | < 10

Reference: patent US20090099167A1, “Organic compounds” (Novartis Institutes for Biomedical Research, priority 2004, published 2009)
